From ChEMBL document CHEMBL3885861, “Open TG-GATES”

Organism: Rattus norvegicus
Experiment: Open TG-GATES - Regimen: Single
Format: toxicity, organism-based, Sprague-Dawley
Set-up: regimen Single, gender Male, age 6 weeks
Settings: in vivo, po, route gavage; for TC / TP / gamma-GTP / ALP / ALT / AST / BUN / CRE / DBIL / GLC / IP / K / LDH / RALB / TBIL / PL: tissue Plasma; for APTT / Bas / Eos / Fbg / Ht / Lym / MCHC / MCV / Mono / PT / Plat / RBC / Ret / WBC: tissue Blood; for KIDNEY_L / KIDNEY_R / KIDNEY_TOTAL: tissue Kidney; for LIVER: tissue Liver
[1] = 0 mg/kg, 24 h, dose level Control

CN(C)CCCN1c2ccccc2CCc2ccccc21 [IMIPRAMINE]
TC [1]: 76 mg/dL | TP [1]: 5.6 g/dL | gamma-GTP [1]: 1 IU/L | TERMINAL_BW (10 mg/kg, 3 h, dose level Low): 203.3 g | APTT (10 mg/kg, 3 h, dose level Low): 16.8 s | Bas (10 mg/kg, 3 h, dose level Low): 0% | Eos (10 mg/kg, 3 h, dose level Low): 1.2% | Fbg (10 mg/kg, 3 h, dose level Low): 264.4 mg/dL | Ht (10 mg/kg, 3 h, dose level Low): 42.9% | Lym (10 mg/kg, 3 h, dose level Low): 78.6% | MCHC (10 mg/kg, 3 h, dose level Low): 31.9% | MCV (10 mg/kg, 3 h, dose level Low): 66.6 fL | Mono (10 mg/kg, 3 h, dose level Low): 2.8% | PT (10 mg/kg, 3 h, dose level Low): 16 s | Plat (10 mg/kg, 3 h, dose level Low): 108.8 x10_4/uL | RBC (10 mg/kg, 3 h, dose level Low): 644 x10_4/ul | Ret (10 mg/kg, 3 h, dose level Low): 8.6% | WBC (10 mg/kg, 3 h, dose level Low): 74.5 x10_2/uL | KIDNEY_L (10 mg/kg, 3 h, dose level Low): 0.9 g | KIDNEY_R (10 mg/kg, 3 h, dose level Low): 0.9 g | KIDNEY_TOTAL (10 mg/kg, 3 h, dose level Low): 1.8 g | LIVER (10 mg/kg, 3 h, dose level Low): 9.1 g | ALP (10 mg/kg, 3 h, dose level Low): 1700 IU/L | ALT (10 mg/kg, 3 h, dose level Low): 46.6 IU/L | AST (10 mg/kg, 3 h, dose level Low): 76.8 IU/L | BUN (10 mg/kg, 3 h, dose level Low): 8.6 mg/dL | CRE (10 mg/kg, 3 h, dose level Low): 0.1 mg/dL | DBIL (10 mg/kg, 3 h, dose level Low): 0.01 mg/dL | GLC (10 mg/kg, 3 h, dose level Low): 187.4 mg/dL | IP (10 mg/kg, 3 h, dose level Low): 10 mg/dL | K (10 mg/kg, 3 h, dose level Low): 4.3 meq/L | LDH (10 mg/kg, 3 h, dose level Low): 73 IU/L | RALB (10 mg/kg, 3 h, dose level Low): 2.6 g/dL | TBIL (10 mg/kg, 3 h, dose level Low): 0.066 mg/dL | TC (10 mg/kg, 3 h, dose level Low): 80.4 mg/dL | TP (10 mg/kg, 3 h, dose level Low): 5.5 g/dL | gamma-GTP (10 mg/kg, 3 h, dose level Low): 1.2 IU/L | TERMINAL_BW (10 mg/kg, 6 h, dose level Low): 199.7 g | APTT (10 mg/kg, 6 h, dose level Low): 16 s | Bas (10 mg/kg, 6 h, dose level Low): 0.2% | Eos (10 mg/kg, 6 h, dose level Low): 0.8% | Fbg (10 mg/kg, 6 h, dose level Low): 276.2 mg/dL | Ht (10 mg/kg, 6 h, dose level Low): 42.9% | Lym (10 mg/kg, 6 h, dose level Low): 75% | MCHC (10 mg/kg, 6 h, dose level Low): 32.3% | MCV (10 mg/kg, 6 h, dose level Low): 66.5 fL | Mono (10 mg/kg, 6 h, dose level Low): 2.2% | PT (10 mg/kg, 6 h, dose level Low): 15.8 s | Plat (10 mg/kg, 6 h, dose level Low): 108.4 x10_4/uL | RBC (10 mg/kg, 6 h, dose level Low): 645.6 x10_4/ul | Ret (10 mg/kg, 6 h, dose level Low): 8.3% | WBC (10 mg/kg, 6 h, dose level Low): 92.4 x10_2/uL | KIDNEY_L (10 mg/kg, 6 h, dose level Low): 0.9 g | KIDNEY_R (10 mg/kg, 6 h, dose level Low): 0.9 g | KIDNEY_TOTAL (10 mg/kg, 6 h, dose level Low): 1.9 g | ALP (10 mg/kg, 6 h, dose level Low): 1517 IU/L | ALT (10 mg/kg, 6 h, dose level Low): 54.4 IU/L | AST (10 mg/kg, 6 h, dose level Low): 79.4 IU/L | BUN (10 mg/kg, 6 h, dose level Low): 8.2 mg/dL | CRE (10 mg/kg, 6 h, dose level Low): 0.2 mg/dL | GLC (10 mg/kg, 6 h, dose level Low): 183 mg/dL | IP (10 mg/kg, 6 h, dose level Low): 9.6 mg/dL | K (10 mg/kg, 6 h, dose level Low): 4.2 meq/L | LDH (10 mg/kg, 6 h, dose level Low): 139.2 IU/L | PL (10 mg/kg, 6 h, dose level Low): 137.6 mg/dL | RALB (10 mg/kg, 6 h, dose level Low): 2.5 g/dL | TBIL (10 mg/kg, 6 h, dose level Low): 0.064 mg/dL | TC (10 mg/kg, 6 h, dose level Low): 74.8 mg/dL | TP (10 mg/kg, 6 h, dose level Low): 5.3 g/dL | gamma-GTP (10 mg/kg, 6 h, dose level Low): 1 IU/L | TERMINAL_BW (10 mg/kg, 9 h, dose level Low): 198.9 g | APTT (10 mg/kg, 9 h, dose level Low): 16.4 s | Bas (10 mg/kg, 9 h, dose level Low): 0.2% | Eos (10 mg/kg, 9 h, dose level Low): 1% | Fbg (10 mg/kg, 9 h, dose level Low): 294.4 mg/dL | Ht (10 mg/kg, 9 h, dose level Low): 42.3% | Lym (10 mg/kg, 9 h, dose level Low): 75.6% | MCHC (10 mg/kg, 9 h, dose level Low): 32.5% | MCV (10 mg/kg, 9 h, dose level Low): 64.4 fL | Mono (10 mg/kg, 9 h, dose level Low): 2.2% | PT (10 mg/kg, 9 h, dose level Low): 15.9 s | Plat (10 mg/kg, 9 h, dose level Low): 114.9 x10_4/uL | RBC (10 mg/kg, 9 h, dose level Low): 658 x10_4/ul | Ret (10 mg/kg, 9 h, dose level Low): 7.7% | WBC (10 mg/kg, 9 h, dose level Low): 71.4 x10_2/uL | KIDNEY_L (10 mg/kg, 9 h, dose level Low): 0.9 g | KIDNEY_R (10 mg/kg, 9 h, dose level Low): 0.9 g | KIDNEY_TOTAL (10 mg/kg, 9 h, dose level Low): 1.8 g | LIVER (10 mg/kg, 9 h, dose level Low): 8.2 g | ALP (10 mg/kg, 9 h, dose level Low): 1463.6 IU/L | ALT (10 mg/kg, 9 h, dose level Low): 37.6 IU/L | AST (10 mg/kg, 9 h, dose level Low): 66.2 IU/L | BUN (10 mg/kg, 9 h, dose level Low): 7.4 mg/dL | CRE (10 mg/kg, 9 h, dose level Low): 0.1 mg/dL | DBIL (10 mg/kg, 9 h, dose level Low): 0.01 mg/dL | GLC (10 mg/kg, 9 h, dose level Low): 181 mg/dL | IP (10 mg/kg, 9 h, dose level Low): 9.9 mg/dL | K (10 mg/kg, 9 h, dose level Low): 4.1 meq/L | LDH (10 mg/kg, 9 h, dose level Low): 67.6 IU/L | PL (10 mg/kg, 9 h, dose level Low): 137.4 mg/dL | RALB (10 mg/kg, 9 h, dose level Low): 2.6 g/dL | TBIL (10 mg/kg, 9 h, dose level Low): 0.066 mg/dL | TC (10 mg/kg, 9 h, dose level Low): 78.4 mg/dL | TP (10 mg/kg, 9 h, dose level Low): 5.5 g/dL | gamma-GTP (10 mg/kg, 9 h, dose level Low): 1.2 IU/L | TERMINAL_BW (10 mg/kg, 24 h, dose level Low): 217.3 g | APTT (10 mg/kg, 24 h, dose level Low): 16.2 s | Bas (10 mg/kg, 24 h, dose level Low): 0% | Eos (10 mg/kg, 24 h, dose level Low): 0.4% | Fbg (10 mg/kg, 24 h, dose level Low): 254 mg/dL | Ht (10 mg/kg, 24 h, dose level Low): 40.6% | Lym (10 mg/kg, 24 h, dose level Low): 81% | MCHC (10 mg/kg, 24 h, dose level Low): 32.3% | MCV (10 mg/kg, 24 h, dose level Low): 65.1 fL | Mono (10 mg/kg, 24 h, dose level Low): 2.4% | PT (10 mg/kg, 24 h, dose level Low): 16.2 s | Plat (10 mg/kg, 24 h, dose level Low): 104.4 x10_4/uL | RBC (10 mg/kg, 24 h, dose level Low): 625.4 x10_4/ul | Ret (10 mg/kg, 24 h, dose level Low): 7.4% | WBC (10 mg/kg, 24 h, dose level Low): 76.3 x10_2/uL | KIDNEY_L (10 mg/kg, 24 h, dose level Low): 0.9 g | KIDNEY_R (10 mg/kg, 24 h, dose level Low): 0.9 g | KIDNEY_TOTAL (10 mg/kg, 24 h, dose level Low): 1.8 g | LIVER (10 mg/kg, 24 h, dose level Low): 9.7 g | ALP (10 mg/kg, 24 h, dose level Low): 1443 IU/L | ALT (10 mg/kg, 24 h, dose level Low): 48.6 IU/L | AST (10 mg/kg, 24 h, dose level Low): 80.8 IU/L | BUN (10 mg/kg, 24 h, dose level Low): 15.6 mg/dL | CRE (10 mg/kg, 24 h, dose level Low): 0.2 mg/dL | GLC (10 mg/kg, 24 h, dose level Low): 187.2 mg/dL | IP (10 mg/kg, 24 h, dose level Low): 7.6 mg/dL | K (10 mg/kg, 24 h, dose level Low): 4 meq/L | LDH (10 mg/kg, 24 h, dose level Low): 73.2 IU/L | RALB (10 mg/kg, 24 h, dose level Low): 2.5 g/dL | TBIL (10 mg/kg, 24 h, dose level Low): 0.058 mg/dL | TC (10 mg/kg, 24 h, dose level Low): 78 mg/dL
